Test results published in patent US6503873B1, “Ultra mild detergent compositions” (Hampshire Chemical Corp, priority 1996, dated 2003).

Key:
[1] = Lather stability (lather drainage time, method of Hart and DeGeorge); format: physicochemical; conditions: for enhancement of lather stability of the product by addition as one-third of the product: 3:1 blend; for change in lather stability (lather drainage time) on addition of water hardness: approximately 3,000 ppm water hardness (CaCO3), FIG. 2
Procedure: The lather stability of a surfactant solution, expressed as lather drainage time, can be determined by the method of Hart and DeGeorge, J. Soc. Cosmet. Chem., 31, 223-226 (1980). In this method, a 200 ml portion of the test solution is agitated in a blender for one minute. The lather produced is immediately poured into a Nalgene PF150 funnel, which has been modified for easy detection of endpoint by incorporation of a fine strand of Nicrome wire across the funnel, where the diameter is 9 cm. The funnel is supported by a 20-mesh sieve. The time elapsed between pouring of the blender contents into the funnel and reappearance of the wire through the subsiding foam, determined using a stopwatch, is reported as the lather drainage time in seconds.

human skin cels = test: In vitro skin irritation testing (MTT assay); format: cell-based; conditions: tissue immersed for 24 hours; about 16% solutions
Procedure: Samples of 1) the aforementioned commercial baby shampoo, 2) Na2LED3A, 3) a 3:1 ratio blend of baby shampoo and Na2LED3A, and 4) a 16% solution of sodium laureth 3 sulfate (a surfactant commonly used in ordinary shampoo) were subjected to in vitro skin irritation testing. A sample of the tissue is immersed for 24 hours in a solution of the substance to be evaluated and later assayed for viable mitochondria by an MTT assay. The MTT assay is a colorimetric method for determining cell viability based on the reduction of a tetrazolium salt (MTT) into a colored formazan dye by mitochondrial enzymes of the electron transport chain. The extent to which the number of viable mitochondria has been reduced, compared to a control, is taken as a measure of the toxicity of the test substance to human skin cels. The in vitro scoring classification used was as follows: […]

[2] = product Johnsons Baby 2 in 1 shampoo, hard water (200 ppm CaCO3)
[3] = product Johnsons Baby 2 in 1 shampoo, soft water
[4] = product Johnsons Baby Bath, hard water (200 ppm CaCO3)
[5] = product Johnsons Baby Bath, soft water
[6] = product Johnsons Baby Shampoo, hard water (200 ppm CaCO3)
[7] = product Johnsons Baby Shampoo, soft water
[8] = product Suave Baby Care, hard water (200 ppm CaCO3)
[9] = product Suave Baby Care, soft water
[10] = sodium chloride, 1% solution, pH 7, FIG. 1

Row | enhancement of lather stability of the product by addition as one-third of the product [1, 2] | enhancement of lather stability of the product by addition as one-third of the product [1, 3] | enhancement of lather stability of the product by addition as one-third of the product ([1]; product Johnsons Baby Shampoo, even harder water (400 ppm CaCO3)) | lather effectiveness relative to the baby shampoo alone ([1]; pure substance, hard water, versus Johnsons Baby 2 in 1 shampoo, FIG. 11) | Compound | enhancement of lather stability of the product by addition as one-third of the product [1, 4] | enhancement of lather stability of the product by addition as one-third of the product [1, 5] | enhancement of lather stability of the product by addition as one-third of the product [1, 6] | enhancement of lather stability of the product by addition as one-third of the product [1, 7] | enhancement of lather stability of the product by addition as one-third of the product [1, 8] | enhancement of lather stability of the product by addition as one-third of the product [1, 9] | Classification (in vitro skin irritation) (human skin cels) | In vitro Score MTT-50 (human skin cels) | change in lather stability (lather drainage time) on addition of water hardness ([1]; 1% solution) | lather drainage time depressed by, upon addition of 4% electrolyte [1, 10] [s] | lather drainage time ([1]; in the presence of 200 ppm hardness, FIG. 10) | lather drainage time increased by, upon addition of 4% electrolyte [1, 10]
1 | approximately 7 fold | more than 2 fold | more than 24 fold | – | CCCCCCCCCCCC(=O)N(CCN(CC(=O)[O-])CC(=O)[O-])CC(=O)O.[K+].[K+] [K2LED3A, potassium lauroyl-ED3A] | approximately 12 fold | approximately 5 fold | more than 14 fold | approximately 8 fold | 5 fold | approximately 2 fold | – | – | – | – | – | –
2 | 9 fold | more than 9 fold | – | more than 100 times | CCCCCCCCCCCCCC(=O)N(CCN(CC(=O)[O-])CC(=O)[O-])CC(=O)O.[Na+].[Na+] [Na2MED3A, sodium myristoyl ED3A] | – | – | – | – | – | – | – | – | – | – | – | –
3 | – | – | – | – | sodium laureth 3 sulfate [Na Laureth(3) sulfate, reference compound] | – | – | – | – | – | – | Moderate (201-1,000) | 522 micro g/ml | – | – | – | –
4 | – | – | – | – | CCCCCCCCCCCCOS(=O)(=O)[O-].[Na+] [sodium lauryl sulfate, reference compound] | – | – | – | – | – | – | – | – | five-fold reduction | 30 | – | –

Row | Compound | enhancement of lather stability of the product by addition as one-third of the product [1, 2] | enhancement of lather stability of the product by addition as one-third of the product [1, 3] | enhancement of lather stability of the product by addition as one-third of the product ([1]; product Johnsons Baby Shampoo, even harder water (400 ppm CaCO3)) | lather effectiveness relative to the baby shampoo alone ([1]; pure substance, hard water, versus Johnsons Baby 2 in 1 shampoo, FIG. 11) | enhancement of lather stability of the product by addition as one-third of the product [1, 4] | enhancement of lather stability of the product by addition as one-third of the product [1, 5] | enhancement of lather stability of the product by addition as one-third of the product [1, 6] | enhancement of lather stability of the product by addition as one-third of the product [1, 7] | enhancement of lather stability of the product by addition as one-third of the product [1, 8] | enhancement of lather stability of the product by addition as one-third of the product [1, 9] | Classification (in vitro skin irritation) (human skin cels) | In vitro Score MTT-50 (human skin cels) | change in lather stability (lather drainage time) on addition of water hardness ([1]; 1% solution) | lather drainage time depressed by, upon addition of 4% electrolyte [1, 10] [s] | lather drainage time ([1]; in the presence of 200 ppm hardness, FIG. 10) | lather drainage time increased by, upon addition of 4% electrolyte [1, 10]
5 | sodium lauroyl ED3A [Na2LED3A] | 5 fold | approximately 6 fold | – | – | more than 12 fold | more than 4 fold | approximately 7 fold | approximately 7 fold | more than 5 fold | more than doubled | Non-irritant (>10,000) | >10,000 micro g/ml | five-fold increase | – | over 200 seconds | more than 70 seconds
